Activity calls are given as the source filed them. The calls are words filed in the database; no cut-off is given here.
Tests used:
RAW264.7 [1] = test: Antiinflammatory activity in mouse RAW264.7 cells assessed as inhibition of LPS-induced nitric oxide production incubated for 15 mins prior to LPS challenge measured after 20 hrs by Griess assay; format: functional, cell-based
RAW264.7 [2] = test: Antiinflammatory activity in mouse RAW264.7 cells assessed as inhibition of LPS-induced nitric oxide production at 50 uM incubated for 15 mins prior to LPS challenge measured after 20 hrs by Griess assay relative to control; format: functional
[3] = (§1) Cytotoxicity against mouse RAW264.7 cells assessed as cell survival after 20 hrs by SRB assay; format: cell-based; settings: RAW264.7 cells, read-out: Survival
RAW264.7 [4] = test: as §1; format: cell-based; settings: raw264.7, 20 h
RAW264.7 [5] = test: Activation of NF-kappaB in mouse RAW264.7 cells assessed as inhibition of LPS-induced IkappaB degradation at 1.9 to 16.7 uM incubated for 15 mins prior to LPS stimulation measured after 15 mins by Western blot analysis; format: cell-based
RAW264.7 [6] = test: Downregulation of iNOS mRNA expression in LPS-stimulated mouse RAW264.7 cells at 5.6 uM incubated for 15 mins prior to LPS stimulation measured after 6 hrs by qRT-PCR analysis (reference value: 503.95 no unit); format: functional
RAW264.7 [7] = test: Downregulation of iNOS mRNA expression in LPS-stimulated mouse RAW264.7 cells at 16.7 uM incubated for 15 mins prior to LPS stimulation measured after 6 hrs by qRT-PCR analysis (reference value: 503.95 no unit); format: functional
RAW264.7 [8] = test: Downregulation of iNOS mRNA expression in LPS-stimulated mouse RAW264.7 cells at 1.9 uM incubated for 15 mins prior to LPS stimulation measured after 6 hrs by qRT-PCR analysis (reference value: 503.95 no unit); format: functional
RAW264.7 [9] = test: Effect on JNK phosphorylation in LPS-stimulated mouse RAW264.7 cells at 1.9 to 16.7 uM incubated for 15 mins prior to LPS stimulation measured after 15 mins by Western blot analysis; format: cell-based
RAW264.7 [10] = test: Downregulation of iNOS mRNA expression in LPS-stimulated mouse RAW264.7 cells incubated for 15 mins prior to LPS stimulation measured after 6 hrs by qRT-PCR analysis; format: functional, cell-based
[11] = target: T1, MAP kinase p38 (Mus musculus) (UniProt P47811+O08911+Q9WUI1+Q9Z1B7); test: Inhibition of p38 phosphorylation in LPS-stimulated mouse RAW264.7 cells at 16.7 uM incubated for 15 mins prior to LPS stimulation measured after 15 mins by Western blot analysis; format: cell-based
RAW264.7 [12] = test: Downregulation of iNOS mRNA expression in LPS-stimulated mouse RAW264.7 cells at 16.7 uM incubated for 15 mins prior to LPS stimulation measured after 6 hrs by qRT-PCR analysis relative to vehicle-treated control; format: functional
RAW264.7 [13] = test: Downregulation of iNOS protein expression in LPS-stimulated mouse RAW264.7 cells incubated for 15 mins prior to LPS stimulation measured after 20 hrs by Western blot analysis; format: functional, cell-based
RAW264.7 [14] = test: Effect on ERK phosphorylation in LPS-stimulated mouse RAW264.7 cells at 1.9 to 16.7 uM incubated for 15 mins prior to LPS stimulation measured after 15 mins by Western blot analysis; format: cell-based
[15] = target: T1, MAP kinase p38 (Mus musculus); test: Inhibition of p38 phosphorylation in LPS-stimulated mouse RAW264.7 cells incubated for 15 mins prior to LPS stimulation measured after 15 mins by Western blot analysis; format: cell-based

SMILES | IC50 (RAW264.7 [1]) | inhibition at 50 µM (RAW264.7 [2]) | viability at 20 h [3] | Activity (RAW264.7 [4]) | other results
C/C=C(\C)c1cc(O)c(C)c2c1Oc1cc(O)c(Cl)c(C)c1C(=O)O2 | 36.1 µM | ≥ 80% | > 80% | – | –
C/C=C(\C)c1c(Br)c(O)c(C)c2c1Oc1cc(O)c(Br)c(C)c1C(=O)O2 | 23.7 µM | ≥ 80% | – | Toxic | –
CC[C@@H](C)C[C@]1(C)C=C/C(=C2/C(=O)O[C@H](CC(=O)OC)C2=O)O1 | 6.82 µM | ≥ 80% | – | Toxic | –
Cc1cc(O)c2c(c1O)C(=O)c1cc(O)cc(O)c1C2=O [CATENARIN] | 41.3 µM | ≥ 80% | > 80% | – | –
CNC(=N)NCCC[C@H](N)C(=O)O [TILARGININE] | 21.7 µM | – | – | – | –
C/C=C/C1=CC=C/C(=C2\C(=O)CNC2=O)O1 [VERMELHOTIN] | 5.35 µM | ≥ 80% | > 80% | – | Activity (RAW264.7 [5]): Active; fold change (FC) (RAW264.7 [6]): 144.02; fold change (FC) (RAW264.7 [7]): 13.72; fold change (FC) (RAW264.7 [8]): 203.39; Activity (RAW264.7 [9]): inactive; inhibition (RAW264.7 [10]): Dose-dependent effect; inhibition [11]: Active; inhibition at 16.7 µM (RAW264.7 [12]): > 95%; inhibition (RAW264.7 [13]): Dose-dependent effect; Activity (RAW264.7 [14]): inactive; inhibition [15]: Dose-dependent effect

— ChEMBL document CHEMBL2424564, “Vermelhotin, an anti-inflammatory agent, suppresses nitric oxide production in RAW 264.7 cells via p38 inhibition” (J Nat Prod, 2013)
